The values that follow come from US8362000B2, “Azetidinyl diamides as monoacylglycerol lipase inhibitors” (Janssen Pharmaceutica NV, priority 2009, dated 2013).

In assay [1] the target is T1, mutant MGL (Homo sapiens, UniProt Q99685, L169S/L176S).
T1 sequence (Q99685 1-303 L169S/L176S): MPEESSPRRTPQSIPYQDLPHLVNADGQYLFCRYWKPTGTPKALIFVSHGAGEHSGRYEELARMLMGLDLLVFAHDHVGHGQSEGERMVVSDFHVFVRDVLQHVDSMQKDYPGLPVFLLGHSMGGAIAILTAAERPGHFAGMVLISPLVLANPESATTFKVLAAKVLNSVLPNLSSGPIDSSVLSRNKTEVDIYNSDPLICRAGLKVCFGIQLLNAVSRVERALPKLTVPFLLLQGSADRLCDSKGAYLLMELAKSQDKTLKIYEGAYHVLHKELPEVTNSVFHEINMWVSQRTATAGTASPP
The assay can be described thus: MGL ThermoFluor assay - mutant. The following applies: read-out: MGL mutant ThermoFluor Kd. Type of assay: binding.

Assay [2] has as its target T2, MGL (Rattus norvegicus, UniProt Q8R431).
T2 construct: one g rat brain was homogenized using a Polytron homogenizer; from tissue; host or cells: rat brain homogenate
T2 sequence (Q8R431 1-303): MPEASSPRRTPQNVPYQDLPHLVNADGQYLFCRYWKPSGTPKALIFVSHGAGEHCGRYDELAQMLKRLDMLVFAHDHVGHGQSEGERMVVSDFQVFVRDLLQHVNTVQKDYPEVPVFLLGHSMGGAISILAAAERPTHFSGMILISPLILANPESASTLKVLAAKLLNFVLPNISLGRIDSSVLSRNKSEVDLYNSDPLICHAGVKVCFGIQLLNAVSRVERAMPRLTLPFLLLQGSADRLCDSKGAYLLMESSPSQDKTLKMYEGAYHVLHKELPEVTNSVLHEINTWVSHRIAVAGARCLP
The assay can be described thus: 2-AG accumulation assay in rat brain homogenate. The settings on record: rat brain homogenate, 2-AG accumulation as percent of vehicle; for 2-AG accumulation, % of vehicle control at 1 µM: compound 1 μM, read-out: Rat Brain 2AG % VehCntrl (%) @ 1 μM; for 2-AG accumulation, % of vehicle control at 0.1 µM: compound 0.1 μM, read-out: Rat Brain 2AG % VehCntrl (%) @ 0.1 μM; for 2-AG accumulation, % of vehicle control at 10 µM: compound 10 μM, read-out: Rat Brain 2AG % VehCntrl (%) @ 10 μM; for 2-AG accumulation, % of vehicle control at 0.01 µM: compound 0.01 μM, read-out: Rat Brain 2AG % VehCntrl (%) @ 0.01 μM. It is filed as biochemical.

Assay [3] relates to CFA-induced paw radiant heat hypersensitivity. The experiment in a line: CFA-induced paw radiant heat hypersensitivity. The following applies: Rattus norvegicus, po, 30 mg/kg p.o., HPβCD, last time point 180 or 300 min. It is filed as in vivo, rat. The protocol: Each rat was placed in a test chamber on a warm glass surface and allowed to acclimate for approximately 10 min. A radiant thermal stimulus (beam of light) was then focused through the glass onto the plantar surface of each hind paw in turn. The thermal stimulus was automatically shut off by a photoelectric relay when the paw was moved or when the cut-off time was reached (20 sec for radiant heat at ˜5 amps). An initial (baseline) response latency to the thermal stimulus was recorded for each animal prior to the injection of complete Freund's adjuvant (CFA). […] Immediately following the post-CFA latency assessment, the indicated test compound or vehicle was administered orally.
The percent reversal (% R) of hypersensitivity was calculated in one of two different ways: 1) using group mean values or 2) using individual animal values. More specifically:
Method 2. For some compounds, the % R of hypersensitivity was calculated separately for each animal according to the following formula: % reversal=[(individual treatment response−individual CFA response)/(individual baseline response−individual CFA response)]×100. Results are given as a mean of the maximum % reversal values calculated for each individual animal.

In assay [4] the target is T3, purified wild type MGL (wt-MGLL 6H-11-313) (Homo sapiens, UniProt Q99685).
T3 sequence (Q99685 1-303): T1 sequence (Q99685 1-303 L169S/L176S) with S169L, S176L

Where [5] appears, read: ThermoFluor concentration-response.
Where [6] appears, read: group mean values, read-out: CFA thermal hypersensitivity Method 1: peak % reversal.
Where [7] appears, read: ThermoFluor thermal stability binding assay.
The mark [8] stands for this setting: individual animal values, read-out: CFA thermal hypersensitivity Method 2: peak % reversal.

Residue numbers refer to the chain shown, from its start. Like-named read-outs stand apart in the source and are kept apart here.

Turning to `O=C(c1ccccc1)N1CCN(C2CN(C(=O)c3ccc4c(-c5cccc(C(F)(F)F)c5)c[nH]c4c3)C2)CC1` [Cpd 572], in assay [1] (setting [5]), the Kd was determined as 30 nM. Further, the 2-AG accumulation, % of vehicle control at 1 µM in assay [2] came to 397%. In addition, the inhibition in vivo at 30 mg/kg in assay [3] (setting [6]) was -5.1%. In assay [4], this molecule came in with a concentration for half-maximal inhibition (IC50) of 31 nM.

Turning to `Cc1cc(-c2cccc(C(F)(F)F)c2)ccc1C(=O)N1CC(N2CCN(C(=O)c3cscn3)CC2)C1` [Cpd 240, 1-(1-{[3-Methyl-3′-(trifluoromethyl)biphenyl-4-yl]carbonyl}azetidin-3-yl)-4-(1,3-thiazol-4-ylcarbonyl)piperazine], the Kd in assay [1] (setting [7]) turned out to be 23.2 nM. For the same molecule, in assay [2], the 2-AG accumulation, % of vehicle control at 0.1 µM came out at 184%; the 2-AG accumulation, % of vehicle control at 1 µM was 538%; the 2-AG accumulation, % of vehicle control at 10 µM is 639%. Also, the inhibition in vivo at 30 mg/kg in assay [3] (setting [6]) worked out at 43%. Also, in assay [3] (setting [8]), the inhibition in vivo at 30 mg/kg is 44.4%. The IC50 in assay [4] is 50.8 nM.

Take `O=C(c1cscn1)N1CCN(C2CN(C(=O)c3ccc(-c4ccccc4)cc3F)C2)CC1` [Cpd 1108, 1-{1-[(3-Fluorobiphenyl-4-yl)carbonyl]azetidin-3-yl}-4-(1,3-thiazol-4-ylcarbonyl)piperazine]: in assay [1] (setting [5]), the Kd was 63 nM. Also, in assay [2], the 2-AG accumulation, % of vehicle control at 0.1 µM is 117%; the 2-AG accumulation, % of vehicle control at 1 µM is 204%; the 2-AG accumulation, % of vehicle control at 10 µM is 456%. Moreover, the inhibition in vivo at 30 mg/kg in assay [3] (setting [6]) was determined as 84.9%. Besides, in assay [3] (setting [8]), the inhibition in vivo at 30 mg/kg amounted to 99.2%. Moreover, the IC50 in assay [4] is 14 nM.

On to `Cc1cc(-c2cccc(C(F)(F)F)c2)ccc1C(=O)N1CC(N2CCN(C(=O)c3nccs3)CC2)C1` [Cpd 239, 1-(1-{[3-Methyl-3′-(trifluoromethyl)biphenyl-4-yl]carbonyl}azetidin-3-yl)-4-(1,3-thiazol-2-ylcarbonyl)piperazine], for which the Kd in assay [1] (setting [7]) was 5 nM. Besides, the 2-AG accumulation, % of vehicle control at 0.01 µM in assay [2] was found to be 153%. In addition, the 2-AG accumulation, % of vehicle control at 0.1 µM in assay [2] amounted to 290%. Besides, the inhibition in vivo at 30 mg/kg was found to be 81.8% in assay [3] (setting [6]) and 87.5% in assay [3] (setting [8]). The same molecule came in with an IC50 in assay [4] of 10 nM.

`COc1cc(C(=O)N2CC(N3CCN(C(=O)c4cscn4)CC3)C2)ccc1-c1ccc(F)c(Cl)c1` [Cpd 261, 1-{1-[(3′-Chloro-4′-fluoro-2-methoxybiphenyl-4-yl)carbonyl]azetidin-3-yl}-4-(1,3-thiazol-4-ylcarbonyl)piperazine]: the Kd in assay [1] (setting [7]) was determined as 9.1 nM. For the same molecule, in assay [2], the 2-AG accumulation, % of vehicle control at 0.1 µM is 148%; the 2-AG accumulation, % of vehicle control at 1 µM worked out at 525%; the 2-AG accumulation, % of vehicle control at 10 µM turned out to be 856%. Further, the inhibition in vivo at 30 mg/kg in assay [3] (setting [6]) turned out to be 26.4%. In addition, the inhibition in vivo at 30 mg/kg in assay [3] (setting [8]) is 27.5%. In addition, the IC50 in assay [4] is 8.4 nM.

`O=C(c1ccc2c(ccn2-c2ccc(F)cc2F)c1)N1CC(N2CCN(C(=O)c3cscn3)CC2)C1` [Cpd 1139, 1-(2,4-Difluorophenyl)-5-({3-[4-(1,3-thiazol-4-ylcarbonyl)piperazin-1-yl]azetidin-1-yl}carbonyl)-1H-indole]: the Kd in assay [1] (setting [5]) was determined as 17 nM. The 2-AG accumulation, % of vehicle control at 1 µM in assay [2] came to 654%. In addition, in assay [3] (setting [6]), the inhibition in vivo at 30 mg/kg came out at 43.8%. Also, in assay [4], inhibition was half-maximal at 27 nM (IC50).

`Cc1nc(-c2ccc(Cl)cc2)sc1C(=O)N1CC(N2CCN(C(=O)c3nccs3)CC2)C1` [Cpd 489, 1-(1-{[2-(4-Chlorophenyl)-4-methyl-1,3-thiazol-5-yl]carbonyl}azetidin-3-yl)-4-(1,3-thiazol-2-ylcarbonyl)piperazine]: the Kd in assay [1] (setting [5]) worked out at 10.4 nM. In assay [2], the 2-AG accumulation, % of vehicle control at 0.01 µM is 119%; the 2-AG accumulation, % of vehicle control at 0.1 µM worked out at 235%; the 2-AG accumulation, % of vehicle control at 1 µM was 790%; the 2-AG accumulation, % of vehicle control at 10 µM came to 950%. Further, in assay [3] (setting [6]), the inhibition in vivo at 30 mg/kg was 27.1%. For the same molecule, the inhibition in vivo at 30 mg/kg in assay [3] (setting [8]) stood at 43.5%. The molecule further returned an IC50 in assay [4] of 9 nM.

For the molecule `O=C(c1ccc(-c2ccccc2)cc1)N1CC(N2CCN(C(=O)c3cscn3)CC2)C1` [Cpd 7, 1-[1-(Biphenyl-4-ylcarbonyl)azetidin-3-yl]-4-(1,3-thiazol-4-ylcarbonyl)piperazine], the Kd in assay [1] (setting [5]) was 46.6 nM. Besides, in assay [2], the 2-AG accumulation, % of vehicle control at 0.1 µM came out at 216%; the 2-AG accumulation, % of vehicle control at 1 µM turned out to be 238%; the 2-AG accumulation, % of vehicle control at 10 µM worked out at 568%. The inhibition in vivo at 30 mg/kg in assay [3] (setting [6]) amounted to 77.8%. Also, the inhibition in vivo at 30 mg/kg in assay [3] (setting [8]) is 76.2%. In assay [4], this molecule displayed a half-maximal inhibitory concentration (IC50) of 131 nM.

Consider `O=C(c1ccc2nc(-c3ccccc3)sc2c1)N1CC(N2CCN(C(=O)c3cscn3)CC2)C1` [Cpd 1187, 2-Phenyl-6-({3-[4-(1,3-thiazol-4-ylcarbonyl)piperazin-1-yl]azetidin-1-yl}carbonyl)-1,3-benzothiazole], for which the Kd in assay [1] (setting [5]) was found to be 197 nM. For the same molecule, the 2-AG accumulation, % of vehicle control at 1 µM in assay [2] was found to be 319%. Further, the inhibition in vivo at 30 mg/kg in assay [3] (setting [6]) came to 16.3%. Besides, half-maximal inhibition in assay [4] (IC50) was put at 92 nM.

As to `O=C(c1ccccc1)N1CCN(C2CN(C(=O)c3ccc(-c4ccccc4)cc3)C2)CC1` [Cpd 5, 1-[1-(Biphenyl-4-ylcarbonyl)azetidin-3-yl]-4-(phenylcarbonyl)piperazine], the dissociation constant (Kd) in assay [1] (setting [5]) was 54.8 nM. For the same molecule, in assay [2], the 2-AG accumulation, % of vehicle control at 0.01 µM amounted to 122%; the 2-AG accumulation, % of vehicle control at 0.1 µM was 123%; the 2-AG accumulation, % of vehicle control at 1 µM was 156%; the 2-AG accumulation, % of vehicle control at 10 µM stood at 279%. In addition, in assay [3] (setting [6]), the inhibition in vivo at 30 mg/kg stood at 96.6%. In addition, the inhibition in vivo at 30 mg/kg in assay [3] (setting [8]) worked out at 100%. The molecule also had an IC50 in assay [4] of 523 nM.

`O=C(c1ccccc1)N1CCN(C2CN(C(=O)c3sc4cc(Br)ccc4c3Cl)C2)CC1` [Cpd 331]: in assay [1] (setting [7]), the equilibrium dissociation constant (Kd) was determined as 6.9 nM. For the same molecule, in assay [2], the 2-AG accumulation, % of vehicle control at 1 µM is 310%. Also, the inhibition in vivo at 30 mg/kg in assay [3] (setting [6]) was 14.3%. The molecule further gave an IC50 in assay [4] of 45.7 nM.

Turning to `O=C(c1ccc2c(ccn2-c2ccc(C(F)(F)F)cc2)c1)N1CCN(C2CN(C(=O)c3nccs3)C2)CC1` [Cpd 1338, 5-({4-[1-(1,3-Thiazol-2-ylcarbonyl)azetidin-3-yl]piperazin-1-yl}carbonyl)-1-[4-(trifluoromethyl)phenyl]-1H-indole], in assay [1] (setting [5]), the Kd turned out to be 15 nM. In assay [2], the 2-AG accumulation, % of vehicle control at 1 µM stood at 877%. Further, the inhibition in vivo at 30 mg/kg in assay [3] (setting [6]) came out at 86.3%. Also, the IC50 in assay [4] was below 5 nM.

In the case of `O=C(c1cscn1)N1CCN(C2CN(C(=O)c3sc4cc(-c5ccccc5)ccc4c3Cl)C2)CC1` [Cpd 345], the Kd in assay [1] (setting [7]) turned out to be 3.1 nM. In addition, in assay [2], the 2-AG accumulation, % of vehicle control at 1 µM amounted to 744%. For the same molecule, the inhibition in vivo at 30 mg/kg in assay [3] (setting [6]) came out at 25%; in assay [3] (setting [8]) it was 26.3%. The molecule also gave an IC50 in assay [4] below 5 nM.
